# Key:
# [1] = topical exposure for 4 hours; cited from earlier work
# [2] = test system: Candida albicans ATCC 10231; assay: microtube dilution MIC; format: cell-based; settings: ATCC10231, Example 9, 48 hrs incubation
# Experimental: (§1) In brief, a standard inoculum (100 μL of a 1:200 dilution of a 0.5 MacFarland turbidity standard) of each microorganism was prepared in standard growth media and added to equal volumes of two-fold serial dilutions of SC and SC-Gel. MICs were determined visually as the highest dilution of SC, or SC-Gel, that inhibited growth after incubating the mixtures overnight at 35° C., except for Candida albicans, which required 48 hrs incubation. […] The MIC dilution was converted to μg/mL by multiplying the neat drug (Ag^+) concentration by the dilution appropriate dilution factor.
# In brief, a standard inoculum (100 μL of a 1:200 dilution of a 0.5 MacFarland turbidity standard) of each microorganism was prepared in standard growth media and added to equal volumes of two-fold serial dilutions of SC and SC-Gel. MICs were determined visually as the highest dilution of SC, or SC-Gel, that inhibited growth after incubating the mixtures overnight at 35° C., except for C. albicans, which required 48 hrs incubation. […] The MIC dilution was converted to μg/mL by multiplying the neat drug (Ag^+) concentration by the dilution appropriate dilution factor.
# [3] = test system: Pseudomonas aeruginosa ATCC 27853; assay: microtube dilution MIC; format: cell-based; settings: Example 13; P. aeruginosa ATCC 27853
# Experimental: as §1
# In brief, a standard inoculum (100 μL of a 1:200 dilution of a 0.5 MacFarland turbidity standard) of each microorganism was prepared in standard growth media and added to equal volumes of two-fold serial dilutions of SC and SC-Gel. MICs were determined visually as the highest dilution of SC, or SC-Gel, that inhibited growth after incubating the mixtures overnight at 35° C., except for C. albicans, which required 48 hrs incubation. […] The MIC dilution was converted to μg/mL by multiplying the neat drug (Ag^+) concentration by the dilution appropriate dilution factor. […]
# [4] = test system: Escherichia coli ATCC 25922; assay: microtube dilution MIC; format: cell-based; settings: Example 13; E. coli ATCC 25922
# Experimental: as §1
# The method described in Example 8 for minimum inhibitory concentration (MIC) was utilized for evaluation of activity of the compositions against Staphylococcus aureus and Streptococcus pyogenes (Gram-positive cocci) and Pseudomonas aeruginosa and Escherichia coli (Gram-negative rod) organisms.
structure (smiles),measurement,setting,value
"O=C(O)CN(CCN(CC(=O)O)CC(=O)O)CC(=O)O.[Na].[Na] [Disodium EDTA, disodium ethylenediaminetetraacetic acid]",reactivity in human patch test,[1],no reactivity
"Clc1ccc(COC(Cn2ccnc2)c2ccc(Cl)cc2Cl)c(Cl)c1 (stereo not shown) [MZL, Miconazole]",MIC,[2],0.49 µg/mL
"O=C([O-])CC(O)(CC(=O)[O-])C(=O)[O-].[Ag+].[Ag+].[Ag+] [SC Liquid, silver citrate]",Minimal Inhibitory Concentration (MIC),[3],11.25 µg/mL
same,Minimal Inhibitory Concentration (MIC),[4],7.5 µg/mL
